Experimental data taken from patent US5776935A, “Pyrido-phtalazin diones and their use against neurological disorders associated with excitotoxicity and malfunctioning of glutamatergic neurotransmission” (Merz & Co. GmbH & Co., priority 1996, dated 1998).

Legend:
[1] = target: T1, glycineB site of the NMDA receptor (rat cortical membranes) (Rattus norvegicus, UniProt P35439); test: [3H]5,7-DCKA binding assay; conditions: 10 nM [3H]5,7-DCKA
T1 construct: The cortex was dissected and homogenised in 20 volumes of ice-cold 0.32M sucrose; from tissue; host or cells: brain cortex membranes of male Sprague-Dawley rats
Experimental: Tissue preparation was performed according to Foster and Wong (1987). Male Sprague-Dawley rats (200-250g) were decapitated and their brains were removed rapidly. The cortex was dissected and homogenised in 20 volumes of ice-cold 0.32M sucrose using a glass-Teflon homogenizer. The homogenate was centrifuged at 1000×g for 10 min. The pellet was discarded and the supernatant centrifuged at 20,000×g for 20 min. The resulting pellet was resuspended in 20 volumes of distilled water and centrifuged for 20 min at 8000×g. Then the supernatant and the buffy coat were centrifuged three times (48,000× g for 20 min) in the presence of 5 mM Tris-HCl, pH 7.4. All centrifugation steps were carried out at 4° C. After resuspension in 5 volumes of 5 mM Tris-HCl, pH 7.4 the membrane suspension was frozen rapidly at -80° C. until the day of assay. On the day of assay the membranes were thawed and washed four times by resuspension in 5 mM Tris-HCl, pH 7.4 and centrifugation at 48,000× g for 20 min. The final pellet was suspended in assay buffer.
The amount of protein in the final membrane preparation was determined according to the method of Lowry (1951) with some modifications (Hartfree, 1972). 50 μl of Protein samples (in triplicates) were diluted to 1 ml with distilled water and treated with 0.9 ml of a solution containing 2 g potassium sodium tartrate and 10 g Na2 CO3 in 500 ml 1N NaOH and 500ml water. Blank and standard (with bovine serum albumin) were set up in the same way. The tubes were placed in a water bath at 50° C. for 10 min. and cooled at room temperature. 100 μl of a solution containing 2 g potassium sodium tartrate and 1 g CuSO4 x 5 H2 O in 90 ml water and 10 ml 1N NaOH were added. The samples were left at room temperature for at least 10 min., then 3 ml of Folin-Ciocalteu reagent (1 ml of reagent diluted with 15 ml water) was added rapidly during mixing. The tubes were again heated at 50° C. for 10 min. and cooled to room temperature. Absorbencies were then read in 1 cm cuvets at 650 nm. The final protein concentration used for our studies was between 100 and 250 μg/ml.
Incubation in both binding assays was terminated using a Millipore filter system. The samples, all in triplicate, were rinsed three times with 2.5 ml ice cold assay buffer over glass fibre filters obtained from Schleicher & Schuell under a constant vacuum. Following separation and rinse the filters were placed into scintillation liquid (5 ml; Ultima Gold) and radioactivity retained on the filters was determined by using conventional liquid scintillation counter (Hewlett Packard, Liquid Scintillation Analyser). `Total binding` was the absolute amount of radioligand bound in the absence of any additives whereas `non-specific` binding was determined in the presence of a high concentration of competitor.
[^3 H]5,7-DCKA binding assay
Experiments were performed according to the methods modified from previous groups (Canton et al., 1991; Yoneda et al., 1993). Membranes were suspended and incubated in 10 mM Tris-HCl, pH 7.4. Incubation time was 45 min at 4° C. Non-specific binding of [^3 H]5,7-DCKA was defined by the addition of unlabeled glycine at 0.1 mM. The stop-solution contained 10 mM Tris-HCl and 10 mM magnesium sulphate, pH 7.4. Filtration was performed as rapidly as possible. Displacement experiments were performed with a fixed [^3 H]5,7-DCKA concentration of 10 nM. Test compounds were diluted in water or DMSO and added in at least 5 different concentrations.

NMDA receptor [2] = target: T2, NMDA receptor (Mus musculus, UniProt P35438); test: NMDA-induced convulsions / lethality test; assay type: in vivo; conditions: ip, 0.25 h, i.p., 15 min before induction, read-out: NMDA ID50
T2 construct: from tissue; host or cells: living mice (albino Swiss males for NMDA and PTZ tests, NMR females for MES)
Experimental: (§1) To assess NMDA receptor antagonistic properties of the tested agents by assessing anticonvulsive effects. Additionally the role of organic acid transporters in the elimination from the brain of tested agents was assessed by using an inhibitor, Probenicid, on the duration of anticonvulsive activity.
(§2) Male albino Swiss mice (19-21 g) housed 10-15 per cage were used for the NMDA lethality test (Leander et al., 1988). For pentylenetetrazol (PTZ)-induced convulsions male albino Swiss mice (25-34 g.) housed 40 per cage (58×38×20 cm) were used while in the maximal electroshock (MES) and motor impairment tests NMR female mice (18-28 g) housed 5 per cage were employed. All animals were kept with water and food ad libittum under a 12-h light-dark cycle (light on at 6 a.m.), and at a controlled temperature (20°±0.5° C.). All experiments were performed between 10 a.m. and 5 p.m. Tested agents were injected 15 min. i.p before the induction of convulsions if not stated otherwise (see below). Mrz 2/502 was dissolved in saline added with NaOH. Most other agents were dissolved in the following solution: 0.606 g Tris; 5.0 g. glucose; 0.5 g. Tween 80; and 95 ml water. The choline and tetramethylammonium salts were dissolved in distilled water.
In the NMDA-induced convulsions test in mice, a dose-response relationship for NMDA was first performed to determine the ED97 dose which was then used for testing of antagonistic properties. After injection of the ED97 dose of NMDA the animals were placed in a small cage (20×28×14 cm) and observed for 20 min. Death preceded by clonic convulsions and by tonic seizures was the pharmacological end-point.

NMDA receptor [3] = target: T2, NMDA receptor; test: Pentylenetetrazol (PTZ)-induced convulsions; assay type: in vivo; conditions: ip, 0.25 h, i.p., PTZ 90 mg/kg i.p., read-out: PTZ ID50
Experimental: as §1, §2
Pentylenetetrazol was injected at a dose of 90 mg/kg (i.p). The presence of general tonic convulsions was then scored for 30 min as this parameter is more sensitive to NMDA receptor antagonists than clonic convulsions. The pharmacological end-point was taken as the presence of tonus in the hind limbs with stretching.

## O=c1[nH][nH]c(=O)c2nc3ccc(Br)cc3cc12 [Mrz 2/503]
[1]
  IC50: 250 nM
NMDA receptor [2]
  ED50: > 100 mg/kg
NMDA receptor [3]
  ED50: > 100 mg/kg

## O=c1[nH]nc(O)c2c1cc1cc(Br)ccc1[n+]2[O-] [Mrz 2/514, 8-bromo-4-hydroxy-1-oxo-1,2-dihydropyridazino[4,5-b]-quinoline 5-oxide]
[1]
  IC50: 10 nM
NMDA receptor [2]
  ED50: 99 mg/kg
NMDA receptor [3]
  ED50: 12.8 mg/kg

## O=c1[nH]nc(O)c2c1cc1cc(Cl)ccc1[n+]2[O-] [Mrz 2/502, 8-chloro-4-hydroxy-1-oxo-1,2-dihydropyridazino[4,5-b]-quinoline 5-oxide]
[1]
  IC50: 20 nM
NMDA receptor [2]
  ED50: 26 mg/kg
NMDA receptor [3]
  ED50: 8.3 mg/kg

## O=c1[nH][nH]c(=O)c2nc3cc(Cl)c(Cl)cc3cc12 [Mrz 2/515]
[1]
  IC50: 530 nM
NMDA receptor [2]
  ED50: 98 mg/kg
NMDA receptor [3]
  ED50: > 100 mg/kg

## O=c1[nH][nH]c(=O)c2nc3ccc(F)cc3cc12 [Mrz 2/519]
[1]
  IC50: 1100 nM
NMDA receptor [2]
  ED50: > 100 mg/kg
NMDA receptor [3]
  ED50: > 100 mg/kg

## O=c1[nH][nH]c(=O)c2nc3ccc(Cl)cc3cc12 [Mrz 2/501]
[1]
  IC50: 120 nM
NMDA receptor [2]
  ED50: > 100 mg/kg
NMDA receptor [3]
  ED50: > 40 mg/kg

## O=c1[nH]nc(O)c2c1cc1cc(F)ccc1[n+]2[O-] [Mrz 2/516, 8-fluoro-4-hydroxy-1-oxo-1,2-dihydropyridazino[4,5-b]-quinoline 5-oxide]
[1]
  IC50: 300 nM
NMDA receptor [2]
  ED50: 40 mg/kg
NMDA receptor [3]
  ED50: 7.9 mg/kg
